Test results: publication PMC12856317, “A reversible feedback mechanism regulating mitochondrial heme synthesis” (The Journal of Biological Chemistry, 2025)

Target: T1, WT holoALAS2 (residues 54–587) (Homo sapiens, UniProt P22557)
T1 construct: His6-SUMO (N, cleaved yes); made in house; host or cells: Escherichia coli BL21-Codon Plus (DE3)-RIL
T1 sequence (P22557 54-587): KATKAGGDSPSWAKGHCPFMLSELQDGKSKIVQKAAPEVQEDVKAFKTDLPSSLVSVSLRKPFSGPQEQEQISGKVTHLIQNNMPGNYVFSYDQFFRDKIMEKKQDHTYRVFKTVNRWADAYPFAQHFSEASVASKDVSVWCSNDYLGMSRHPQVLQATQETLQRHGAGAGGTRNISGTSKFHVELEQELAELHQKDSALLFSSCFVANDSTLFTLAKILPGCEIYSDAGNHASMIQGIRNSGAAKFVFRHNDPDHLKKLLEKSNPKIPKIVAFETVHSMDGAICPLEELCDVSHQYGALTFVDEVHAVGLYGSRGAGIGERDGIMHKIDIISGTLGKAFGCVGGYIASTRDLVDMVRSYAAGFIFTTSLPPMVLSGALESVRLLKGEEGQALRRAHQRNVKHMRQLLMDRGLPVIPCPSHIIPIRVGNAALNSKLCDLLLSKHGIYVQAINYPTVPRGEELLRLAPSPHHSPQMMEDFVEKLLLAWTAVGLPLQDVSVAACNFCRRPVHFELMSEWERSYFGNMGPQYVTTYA
Test: Succinyl-CoA:hemin competition analysis
Type: biochemical
Conditions: succinyl-CoA varied; for Km: 95% confidence interval in brackets
Experimental: A discontinuous colorimetric activity assay adapted from Shoolingin-Jordan et al. and Bailey et al. was used to measure the enzyme activity ([48], [74]). The reaction was initiated by adding 100 nM purified enzyme to 50 mM potassium phosphate, pH 7.0, 10 mM MgCl2, 1 mM DTT, 100 mM glycine, and 300 μM succinyl-CoA (175 μl total). The reaction was incubated at 37 °C for 15 min and terminated with 100 μl of cold 10% trichloroacetic acid. The precipitated protein was removed by centrifugation for 5 min at 13,000g, and 240 μl of the supernatant was mixed with 240 μl of 1 M sodium acetate, pH 4.6. To derivatize ALA, 20 μl of acetylacetone was added to the mixture and boiled at 100 °C for 10 min. After the sample was cooled for 20 min, 100 μl aliquots were transferred into a clear 96-well plate in triplicate. An equal volume of Ehrlich’s reagent (p-Dimethylaminobenzaldehyde, DMAB) was added to each well, and the absorbance was monitored at 553 nm using a microplate reader (Thermo Fisher Scientific). The peak absorbance value was converted to molar ALA concentration using ε553 = 60,400 M^−1 cm^−1.
For inhibitor competition experiments, the apoenzymes were preincubated with hemin or PLP (0–100 μM) for 15 min at 25 °C in the dark before initiating the reaction. Next, either PLP or hemin (0–100 μM) was titrated into the reactions to measure enzyme activation after hemin inhibition or enzyme inhibition of the PLP-treated apoenzyme, respectively. For succinyl-CoA:hemin competition analyses, the WT holoenzyme was mixed with hemin (0, 25, 50, and 100 μM), followed by the addition of increasing succinyl-CoA concentrations (0, 25, 50, 100, 250, and 500 μM). All experiments were performed with a minimum of three biological replicates, each with three technical replicates. Data were fit using nonlinear regression to generate an agonist dose-response curve (EC50) or an inhibitor dose-response curve (IC50). Lineweaver-Burk analysis was performed using the resulting kinetic parameters (Vmax and KM) in GraphPad Prism 10.

With succinyl-CoA the Vmax (hemin 0 μM) was 337.15 [445.63, 271.22] nmol/min/mg, the Km (hemin 0 μM) was 178 µM and the Vmax (hemin 25 μM) was 109.04 [132.82, 92.51] nmol/min/mg. For the same substance, the Km (hemin 25 μM) was 54.8 µM, the Vmax (hemin 50 μM) was 45.98 [63.13, 36.15] nmol/min/mg and the Km (hemin 50 μM) was 46.2 µM. For the same substance, the Vmax (hemin 100 μM) was 37.50 [60.98, 27.07] nmol/min/mg and the Km (hemin 100 μM) was 39.2 µM.
